From patent US9440989B2, “Antifibrinolytic compounds” (PROYECTO DE BIOMEDICINA CIMA, S.L., priority 2012, dated 2016)

System: human blood (whole blood clot lysis, tPA)
Assay: Thromboelastometry (ROTEM, modified in-tem with tPA): whole blood clot formation and lysis, human blood
Details: Homo sapiens, read-out: EC50LT (effective concentration to delay lysis time by 50%)
Method: A modification of in-tem test as described below was used for the examination of antifibrinolytic effects of tested compounds and its interaction with platelets in citrated blood.
In a pre-warmed cuvette and holder 1 μL of Tissue plasminogen activator (tPA) (150,000 U/mL, Actylise), 20 μL of start-tem reagent (CaCl2), 20 μL of in-tem reagent (activators of coagulation system), 3 μL of DMSO (control) or tested compounds (CMs) in DMSO and 300 μL of citrated blood pre-warmed were pipetted. The cup holder containing the sample mixture was placed immediately on the appropriate channel. The measurement was recorded for 60 min to allow clot formation and lysis.

Structure (SMILES) | EC50
CC(C)CCOc1ccc(S(=O)(=O)C2(C(=O)NO)CCC3(CCNCC3)C2)cc1 (centres unmarked) [Example 1-05] | 10 to 25 µM
COC(=O)c1ccc(Oc2ccc(S(=O)(=O)C3(C(=O)NO)CCC4(CCNCC4)C3)cc2)cc1 (centres unmarked) [Example 1-06] | > 25 µM
O=C(NO)C1(S(=O)(=O)c2ccc(OCCN3CCCCC3)cc2)CCC2(CCNCC2)C1 (centres unmarked) [Example 1-11, N-hydroxy-3-(4-[2-(piperidin-1-yl)ethoxy]phenylsulfonyl)-8-azaspiro[4.5]decane-3-carboxamide] | < 1 µM
CC(=O)Nc1ccc(Oc2ccc(S(=O)(=O)C3(C(=O)NO)CCC4(CCNCC4)C3)cc2)cc1 (centres unmarked) [Example 1-13] | < 1 µM
COc1ccc(Sc2ccc(S(=O)(=O)C3(C(=O)NO)CCC4(CCNCC4)C3)cc2)cc1 (centres unmarked) [Example 1-15] | > 25 µM
COC1CCN(c2ccc(S(=O)(=O)C3(C(=O)NO)CCC4(CCNCC4)C3)cc2)CC1 (centres unmarked) [Example 1-16, N-hydroxy-3-[4-(4-methoxypiperidin-1-yl)phenylsulfonyl]-8-azaspiro[4.5]decane-3-carboxamide] | 1 to 10 µM
COc1ccc(S(=O)(=O)c2ccc(S(=O)(=O)C3(C(=O)NO)CCC4(CCNCC4)C3)cc2)cc1 (centres unmarked) [Example 1-17] | 1 to 10 µM
O=C(NO)C1(S(=O)(=O)c2ccc(OC3CCCCC3)cc2)CCC2(CCNCC2)C1 (centres unmarked) [Example 1-18] | 1 to 10 µM
O=C(NO)C1(S(=O)(=O)c2ccc(Oc3ccc(C(F)(F)F)cc3)cc2)CCC2(CCNCC2)C1 (centres unmarked) [Example 1-21] | < 1 µM
COc1ccc(Oc2ccc(S(=O)(=O)C3(C(=O)NO)CCC4(CCN(CC(C)=O)CC4)C3)cc2)cc1 (centres unmarked) [Example 1-28] | 1 to 10 µM
COc1ccc(Oc2ccc(S(=O)(=O)C3(C(=O)NO)CCC4(CCN(CC(=O)O)CC4)C3)cc2)cc1 (centres unmarked) [Example 1-29] | 1 to 10 µM
CCCN1CCC2(CC1)CCC(C(=O)NO)(S(=O)(=O)c1ccc(Oc3ccc(OC)cc3)cc1)C2 (centres unmarked) [Example 1-31] | < 1 µM
COc1ccc(Oc2ccc(S(=O)(=O)C3(C(=O)NO)CCC4(CCN(C5CC5)CC4)C3)cc2)cc1 (centres unmarked) [Example 1-32] | 1 to 10 µM
CNC(=O)N1CCC2(CC1)CCC(C(=O)NO)(S(=O)(=O)c1ccc(Oc3ccc(OC)cc3)cc1)C2 (centres unmarked) [Example 1-33] | > 25 µM
COc1ccc(Oc2ccc(S(=O)(=O)C3(C(=O)NO)CCC4(CCN(c5ccccc5)CC4)C3)cc2)cc1 (centres unmarked) [Example 1-34] | > 25 µM
COc1ccc(Oc2ccc(S(=O)(=O)C3(C(=O)NO)CCC4(CCN(c5ccccn5)CC4)C3)cc2)cc1 (centres unmarked) [Example 1-35] | 1 to 10 µM
COc1ccc(Oc2ccc(S(=O)(=O)C3(C(=O)NO)CCC4(CCN(Cc5ccccc5)CC4)C3)cc2)cc1 (centres unmarked) [Example 1-36] | 1 to 10 µM
COc1ccc(Oc2ccc(S(=O)(=O)C3(C(=O)NO)CCC4(CCN(Cc5ccncc5)CC4)C3)cc2)cc1 (centres unmarked) [Example 1-37] | > 25 µM
COc1ccc(-c2ccc(S(=O)(=O)C3(C(=O)NO)CCC4(CCNCC4)C3)cc2)cc1 (centres unmarked) [Example 1-41, N-hydroxy-3-(4-(4-methoxyphenyl)Phenylsulfonyl)-8-azaspiro[4.5]decane-3-carboxamide] | > 25 µM
COc1ccc(Oc2ccc(S(=O)(=O)C3(C(=O)NO)CC34CCNCC4)cc2)cc1 (centres unmarked) [Example 1-43] | < 1 µM
COc1ccc(Oc2ccc(S(=O)(=O)C3(C(=O)NO)CCC4(CCNCC4)C3)cc2Cl)cc1 (centres unmarked) [Example 1-56, N-hydroxy-3-(3-chloro-4-(4-methoxyphenoxyl)Phenylsulfonyl)-8-azaspiro[4.5]decane-3-carboxamide] | < 1 µM

Structure (SMILES) | EC50
O=C(NO)C1(S(=O)(=O)c2ccc(O)cc2)CCC2(CCNCC2)C1 (centres unmarked) [Example 1-60, N-hydroxy-3-(4-hydroxyphenylsulfonyl)-8-azaspiro[4.5]decane-3-carboxamide] | > 25 µM
Nc1ccc(S(=O)(=O)C2(C(=O)NO)CCC3(CCNCC3)C2)cc1 (centres unmarked) [Example 1-61] | > 25 µM
NC(=O)c1ccc(Oc2ccc(S(=O)(=O)C3(C(=O)NO)CCC4(CCNCC4)C3)cc2)cc1 (centres unmarked) [Example 1-64] | > 25 µM
CC(C)NC(=O)c1ccc(Oc2ccc(S(=O)(=O)C3(C(=O)NO)CCC4(CCNCC4)C3)cc2)cc1 (centres unmarked) [Example 1-65] | 1 to 10 µM
O=C(NO)C1(S(=O)(=O)c2ccc(Cc3ccccc3)cc2)CCC2(CCNCC2)C1 (centres unmarked) [Example 1-66] | > 25 µM
O=C(NO)C1(S(=O)(=O)c2ccc(NCc3ccccc3)cc2)CCC2(CCNCC2)C1 (centres unmarked) [Example 1-67] | < 1 µM
COC1CCC(Oc2ccc(S(=O)(=O)C3(C(=O)NO)CCC4(CCNCC4)C3)cc2)CC1 (centres unmarked) [Example 1-70] | < 1 µM
CC(C)Oc1ccc(Oc2ccc(S(=O)(=O)C3(C(=O)NO)CCC4(CCNCC4)C3)cc2)cc1 (centres unmarked) [Example 1-72] | 1 to 10 µM
COC(=O)c1cccc(Oc2ccc(S(=O)(=O)C3(C(=O)NO)CCC4(CCNCC4)C3)cc2)c1 (centres unmarked) [Example 1-74] | 1 to 10 µM
O=C(O)c1cccc(Oc2ccc(S(=O)(=O)C3(C(=O)NO)CCC4(CCNCC4)C3)cc2)c1 (centres unmarked) [Example 1-75] | 1 to 10 µM
O=C(NO)C1(S(=O)(=O)c2ccc(Oc3ccc(Cl)cc3)cc2)CCC2(CCNCC2)C1 (centres unmarked) [Example 1-76] | > 25 µM
COC1CCC(Nc2ccc(S(=O)(=O)C3(C(=O)NO)CCC4(CCNCC4)C3)cc2)CC1 (centres unmarked) [Example 1-77] | 1 to 10 µM
O=C(NO)C1(S(=O)(=O)c2cccc(NC3CCCCC3)c2)CCC2(CCNCC2)C1 (centres unmarked) [Example 1-78] | > 25 µM
O=C(Nc1ccc(S(=O)(=O)C2(C(=O)NO)CCC3(CCNCC3)C2)cc1)C1CCCCC1 (centres unmarked) [Example 1-81, N-hydroxy-3-(4-(cyclohexanecarbonylamino)Phenylsulfonyl)-8-azaspiro[4.5]decane-3-carboxamide] | < 1 µM
CNC(=O)C1CCC(Nc2ccc(S(=O)(=O)C3(C(=O)NO)CCC4(CCNCC4)C3)cc2)CC1 (centres unmarked) [Example 1-83] | > 25 µM
O=C(O)C1CCC(Nc2ccc(S(=O)(=O)C3(C(=O)NO)CCC4(CCNCC4)C3)cc2)CC1 (centres unmarked) [Example 1-84] | < 1 µM
O=C(O)c1ccc(C(=O)Oc2ccc(S(=O)(=O)C3(C(=O)NO)CCC4(CCNCC4)C3)cc2)cc1 (centres unmarked) [Example 1-86] | < 1 µM
O=C(O)c1ccc(Oc2ccc(S(=O)(=O)C3(C(=O)NO)CCC4(CCNCC4)C3)cc2)cc1F (centres unmarked) [Example 1-88] | < 1 µM
CNC(=O)c1ccc(Oc2ccc(S(=O)(=O)C3(C(=O)NO)CCC4(CCNCC4)C3)cc2)cc1F (centres unmarked) [Example 1-89] | > 25 µM
COc1cc(S(=O)(=O)C2(C(=O)NO)CCC3(CCNCC3)C2)ccc1NC1CCCCC1 (centres unmarked) [Example 1-90, N-hydroxy-3-(3-methoxy-4-(cyclohexylamino)Phenylsulfonyl)-8-azaspiro[4.5]decane-3-carboxamide] | > 25 µM
O=C(NO)C1(S(=O)(=O)c2ccc(OCC3CCCCC3)cc2)CCC2(CCNCC2)C1 (centres unmarked) [Example 1-92] | 1 to 10 µM

Structure (SMILES) | EC50
CNC(=O)c1ccc(Oc2ccc(S(=O)(=O)C3(C(=O)NO)CCC4(CCNCC4)C3)cc2)c(F)c1 (centres unmarked) [Example 1-93] | > 25 µM
COC(=O)c1ccc(Oc2ccc(S(=O)(=O)C3(C(=O)NO)CCC4(CCNCC4)C3)cc2)c(F)c1 (centres unmarked) [Example 1-94] | > 25 µM
O=C(O)c1ccc(Oc2ccc(S(=O)(=O)C3(C(=O)NO)CCC4(CCNCC4)C3)cc2)c(F)c1 (centres unmarked) [Example 1-95] | > 25 µM
O=C(NO)C1(S(=O)(=O)c2ccc(NC3CCCC3)cc2)CCC2(CCNCC2)C1 (centres unmarked) [Example 1-97] | 1 to 10 µM
O=C(Oc1ccc(S(=O)(=O)C2(C(=O)NO)CCC3(CCNCC3)C2)cc1)C1CCCCC1 (centres unmarked) [Example 1-98] | > 25 µM
O=C(NO)C1(S(=O)(=O)c2ccc(OCc3ccncc3)cc2)CCC2(CCNCC2)C1 (centres unmarked) [Example 1-100] | < 1 µM
CNC(=O)c1ccc(C(=O)Oc2ccc(S(=O)(=O)C3(C(=O)NO)CCC4(CCNCC4)C3)cc2)cc1F (centres unmarked) [Example 1-101] | 1 to 10 µM
CNC(=O)c1ccc(CNc2ccc(S(=O)(=O)C3(C(=O)NO)CCC4(CCNCC4)C3)cc2)cc1 (centres unmarked) [Example 1-104] | < 1 µM
COC(=O)c1ccc(CNc2ccc(S(=O)(=O)C3(C(=O)NO)CCC4(CCNCC4)C3)cc2)cc1 (centres unmarked) [Example 1-105] | > 25 µM
O=C(O)c1ccc(CNc2ccc(S(=O)(=O)C3(C(=O)NO)CCC4(CCNCC4)C3)cc2)cc1 (centres unmarked) [Example 1-106] | < 1 µM
O=C(NO)C1(S(=O)(=O)c2ccc(Oc3ccc(OC(F)(F)F)c(Cl)c3)cc2)CCC2(CCNCC2)C1 (centres unmarked) [Example 1-114] | 10 to 25 µM
O=C(NO)C1(S(=O)(=O)c2ccc(Oc3cccc(OC(F)(F)F)c3)cc2)CCC2(CCNCC2)C1 (centres unmarked) [Example 1-115] | < 1 µM
O=C(NO)C1(S(=O)(=O)c2ccc(F)c(Cl)c2)CCC2(CCNCC2)C1 (centres unmarked) [Example 1-116, N-hydroxy-3-(3-chloro-4-fluorophenylsulfonyl)-8-azaspiro[4.5]decane-3-carboxamide] | < 1 µM
O=C(NO)C1(S(=O)(=O)c2ccc(Oc3ccc(OC(F)(F)F)c(F)c3)cc2)CCC2(CCNCC2)C1 (centres unmarked) [Example 1-118] | < 1 µM
COc1ccc(C(=O)Oc2cccc(S(=O)(=O)C3(C(=O)NO)CCC4(CCNCC4)C3)c2)cc1 (centres unmarked) [Example 1-119] | < 1 µM
O=C(Oc1cccc(S(=O)(=O)C2(C(=O)NO)CCC3(CCNCC3)C2)c1)c1ccc(OC(F)(F)F)cc1 (centres unmarked) [Example 1-120] | > 25 µM
O=C(NO)C1(S(=O)(=O)c2ccc(O)c(Cl)c2)CCC2(CCNCC2)C1 (centres unmarked) [Example 1-121] | 1 to 10 µM
O=C(NO)C1(S(=O)(=O)c2ccc(OCc3ccccc3)c(Cl)c2)CCC2(CCNCC2)C1 (centres unmarked) [Example 1-122] | > 25 µM
O=C(NO)C1(S(=O)(=O)c2cccc(Oc3ccc(OC(F)(F)F)cc3)c2)CCC2(CCNCC2)C1 (centres unmarked) [Example 1-123] | < 1 µM
O=C(NO)C1(S(=O)(=O)c2ccc(Oc3ccc(OC(F)(F)F)cc3)cc2)CCC2(CCN(C3CC3)CC2)C1 (centres unmarked) [Example 1-124] | 1 to 10 µM
O=C(NO)C1(S(=O)(=O)c2ccc(NCC3CCC(F)(F)CC3)cc2)CCC2(CCNCC2)C1 (centres unmarked) [Example 1-125] | < 1 µM

Same assay, conditions: read-out: EC50LT (effective concentration to delay lysis time by 50%); human blood, tPA, assayed concentrations 1000-0.2 μM

Structure (SMILES) | EC50
COc1ccc(Oc2ccc(S(=O)(=O)C3(C(=O)NO)CCC4(CCN(Cc5cnc[nH]5)CC4)C3)cc2)cc1 (centres unmarked) [Example 1-39] | > 25 µM
CN(C)C(=O)c1ccc(Oc2ccc(S(=O)(=O)C3(C(=O)NO)CCC4(CCNCC4)C3)cc2)cc1 (centres unmarked) [Example 1-63] | 1 to 10 µM
